# Reference: ChEMBL document CHEMBL4765347, “Radiomodulatory effect of a non-electrophilic NQO1 inducer identified in a screen of new 6, 8-diiodoquinazolin-4(3H)-ones carrying a sulfonamide moiety” (Eur J Med Chem, 2020)
# Tests used:
# Conditions in all cases: filed as activator, time 50.0 min
# Nrf2 (Mus musculus) [1] = test: Activation of Nrf2 in mouse Hepa1c1c7 cells assessed as increase in NQO1 activity at 5 uM using menadione as substrate incubated for 20 mins followed by substrate addition and measured after 30 mins by spectrophotometry relative to control
# Nrf2 (Mus musculus) [2] = test: Activation of Nrf2 in mouse Hepa1c1c7 cells assessed as increase in NQO1 activity at 10 uM using menadione as substrate incubated for 20 mins followed by substrate addition and measured after 30 mins by spectrophotometry relative to control
# Nrf2 (Mus musculus) [3] = test: Activation of Nrf2 in mouse Hepa1c1c7 cells assessed as increase in NQO1 activity at 20 uM using menadione as substrate incubated for 20 mins followed by substrate addition and measured after 30 mins by spectrophotometry relative to control
# [4] = target: Nuclear factor erythroid 2-related factor 2 (Mus musculus) (UniProt Q60795); test: Activation of Nrf2 in mouse Hepa1c1c7 cells assessed as increase in NQO1 activity at 40 uM using menadione as substrate incubated for 20 mins followed by substrate addition and measured after 30 mins by spectrophotometry relative to control
# Nuclear factor erythroid 2-related factor 2 (Mus musculus), sequence (Q60795 whole entry, looked up): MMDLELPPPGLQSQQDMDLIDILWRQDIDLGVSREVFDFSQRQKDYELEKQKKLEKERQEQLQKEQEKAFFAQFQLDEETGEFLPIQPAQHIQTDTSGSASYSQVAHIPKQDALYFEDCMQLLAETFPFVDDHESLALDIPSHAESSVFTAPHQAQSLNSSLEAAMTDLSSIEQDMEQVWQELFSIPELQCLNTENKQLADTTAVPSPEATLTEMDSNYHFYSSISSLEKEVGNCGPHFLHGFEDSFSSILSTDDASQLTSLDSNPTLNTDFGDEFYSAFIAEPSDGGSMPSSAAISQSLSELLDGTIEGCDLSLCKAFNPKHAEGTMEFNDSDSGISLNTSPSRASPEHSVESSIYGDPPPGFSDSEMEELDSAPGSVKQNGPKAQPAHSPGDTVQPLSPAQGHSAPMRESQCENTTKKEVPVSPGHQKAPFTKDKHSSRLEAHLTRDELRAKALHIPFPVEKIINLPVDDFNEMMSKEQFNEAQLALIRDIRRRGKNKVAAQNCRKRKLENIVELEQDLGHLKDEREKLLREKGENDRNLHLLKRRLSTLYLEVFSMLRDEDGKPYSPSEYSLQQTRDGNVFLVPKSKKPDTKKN
# Nrf2 (Mus musculus) [5] = test: Activation of Nrf2 in mouse Hepa1c1c7 cells assessed as increase in NQO1 activity at 2.5 uM using menadione as substrate incubated for 20 mins followed by substrate addition and measured after 30 mins by spectrophotometry relative to control
# Nrf2 (Mus musculus) [6] = test: Activation of Nrf2 in mouse Hepa1c1c7 cells assessed as increase in NQO1 activity at 1.25 uM using menadione as substrate incubated for 20 mins followed by substrate addition and measured after 30 mins by spectrophotometry relative to control
# Nrf2 (Mus musculus) [7] = test: Activation of Nrf2 in mouse Hepa1c1c7 cells assessed as increase in NQO1 activity at 0.313 uM using menadione as substrate incubated for 20 mins followed by substrate addition and measured after 30 mins by spectrophotometry relative to control
# Nrf2 (Mus musculus) [8] = test: Activation of Nrf2 in mouse Hepa1c1c7 cells assessed as increase in NQO1 activity at 0.625 uM using menadione as substrate incubated for 20 mins followed by substrate addition and measured after 30 mins by spectrophotometry relative to control
# Nrf2 (Mus musculus) [9] = test: Activation of Nrf2 in mouse Hepa1c1c7 cells assessed as increase in NQO1 activity using menadione as substrate incubated for 20 mins followed by substrate addition and measured after 30 mins by spectrophotometry
# [10] = target: Nuclear factor erythroid 2-related factor 2 (Mus musculus) (UniProt Q60795); test: Activation of Nrf2 in mouse Hepa1c1c7 cells assessed as increase in NQO1 activity at 25 uM using menadione as substrate incubated for 20 mins followed by substrate addition and measured after 30 mins by spectrophotometry relative to control
# [11] = target: Nuclear factor erythroid 2-related factor 2 (Mus musculus) (UniProt Q60795); test: Activation of Nrf2 in mouse Hepa1c1c7 cells assessed as increase in NQO1 activity at 50 uM using menadione as substrate incubated for 20 mins followed by substrate addition and measured after 30 mins by spectrophotometry relative to control
# Nrf2 (Mus musculus) [12] = test: Activation of Nrf2 in mouse Hepa1c1c7 cells assessed as increase in NQO1 activity at 0.4 uM using menadione as substrate incubated for 20 mins followed by substrate addition and measured after 30 mins by spectrophotometry relative to control
# Nrf2 (Mus musculus) [13] = test: Activation of Nrf2 in mouse Hepa1c1c7 cells assessed as increase in NQO1 activity at 0.8 uM using menadione as substrate incubated for 20 mins followed by substrate addition and measured after 30 mins by spectrophotometry relative to control
# Nrf2 (Mus musculus) [14] = test: Activation of Nrf2 in mouse Hepa1c1c7 cells assessed as increase in NQO1 activity at 1.6 uM using menadione as substrate incubated for 20 mins followed by substrate addition and measured after 30 mins by spectrophotometry relative to control
# [15] = target: Nuclear factor erythroid 2-related factor 2 (Mus musculus) (UniProt Q60795); test: Activation of Nrf2 in mouse Hepa1c1c7 cells assessed as increase in NQO1 activity at 6.25 uM using menadione as substrate incubated for 20 mins followed by substrate addition and measured after 30 mins by spectrophotometry relative to control
# [16] = target: Nuclear factor erythroid 2-related factor 2 (Mus musculus) (UniProt Q60795); test: Activation of Nrf2 in mouse Hepa1c1c7 cells assessed as increase in NQO1 activity at 12.5 uM using menadione as substrate incubated for 20 mins followed by substrate addition and measured after 30 mins by spectrophotometry relative to control
# Nrf2 (Mus musculus) [17] = test: Activation of Nrf2 in mouse Hepa1c1c7 cells assessed as increase in NQO1 activity at 3.125 uM using menadione as substrate incubated for 20 mins followed by substrate addition and measured after 30 mins by spectrophotometry relative to control
Compound,T/C (Nrf2 (Mus musculus) [1]),T/C (Nrf2 (Mus musculus) [2]),T/C (Nrf2 (Mus musculus) [3]),T/C [4],T/C (Nrf2 (Mus musculus) [5]),T/C (Nrf2 (Mus musculus) [6]),T/C (Nrf2 (Mus musculus) [7]),T/C (Nrf2 (Mus musculus) [8]),Activity (Nrf2 (Mus musculus) [9]),CD (Nrf2 (Mus musculus) [9]),T/C [10],T/C [11],T/C (Nrf2 (Mus musculus) [12]),T/C (Nrf2 (Mus musculus) [13]),T/C (Nrf2 (Mus musculus) [14]),T/C [15],T/C [16],T/C (Nrf2 (Mus musculus) [17])
Cc1cccc([N+](=O)[O-])c1NC(=O)CSc1nc2c(I)cc(I)cc2c(=O)n1-c1ccc(S(N)(=O)=O)cc1,,,,,,,,,Dose-dependent effect,50 µM,1.34,1.94,0.95,0.93,0.89,0.91,1.05,0.83
NS(=O)(=O)c1ccc(-n2c(S)nc3c(I)cc(I)cc3c2=O)cc1,,,,,,,,,,,1.05,,1.01,1.04,1.06,1.02,1.06,1.01
Cc1cc([N+](=O)[O-])ccc1NC(=O)CSc1nc2c(I)cc(I)cc2c(=O)n1-c1ccc(S(N)(=O)=O)cc1,1.06,1.28,1.53,,1,0.99,1.01,1.01,,,,,,,,,,
CCc1ccccc1NC(=O)CSc1nc2c(I)cc(I)cc2c(=O)n1-c1ccc(S(N)(=O)=O)cc1,1.01,1.01,1.01,1.05,0.97,0.99,0.99,0.97,,,,,,,,,,
Cc1ccccc1NC(=O)CSc1nc2c(I)cc(I)cc2c(=O)n1-c1ccc(S(N)(=O)=O)cc1,,,,,,,,,,,1.31,1.43,1.04,1.04,1.04,1.13,1.27,1.06
NS(=O)(=O)c1ccc(-n2c(SCC(=O)Nc3ccc([N+](=O)[O-])cc3[N+](=O)[O-])nc3c(I)cc(I)cc3c2=O)cc1,1.08,1.2,1.36,1.68,1.04,1.03,1.01,1.04,,,,,,,,,,
COc1cc(NC(=O)CSc2nc3c(I)cc(I)cc3c(=O)n2-c2ccc(S(N)(=O)=O)cc2)cc(OC)c1,,,,,,,,,,,1.73,1.81,1,1.01,1.02,1.22,1.52,1.06

# Continued, values first:
T/C (Nrf2 (Mus musculus) [1]),T/C (Nrf2 (Mus musculus) [2]),T/C (Nrf2 (Mus musculus) [3]),T/C [4],T/C (Nrf2 (Mus musculus) [5]),T/C (Nrf2 (Mus musculus) [6]),T/C (Nrf2 (Mus musculus) [7]),T/C (Nrf2 (Mus musculus) [8]),Activity (Nrf2 (Mus musculus) [9]),CD (Nrf2 (Mus musculus) [9]),T/C [10],T/C [11],T/C (Nrf2 (Mus musculus) [12]),T/C (Nrf2 (Mus musculus) [13]),T/C (Nrf2 (Mus musculus) [14]),T/C [15],T/C [16],T/C (Nrf2 (Mus musculus) [17]),Compound
1.04,1.09,1.15,1.3,1.04,1.05,1.03,1.02,,,,,,,,,,,CCc1cccc(NC(=O)CSc2nc3c(I)cc(I)cc3c(=O)n2-c2ccc(S(N)(=O)=O)cc2)c1
,,,,,,,,,,1.26,1.47,1.03,1,1.03,1.11,1.18,1.06,NS(=O)(=O)c1ccc(-n2c(SCC(=O)Nc3ccccc3)nc3c(I)cc(I)cc3c2=O)cc1
,,,,,,,,,,1.03,1.14,0.98,0.99,0.98,0.99,1.01,0.97,CCc1ccc(NC(=O)CSc2nc3c(I)cc(I)cc3c(=O)n2-c2ccc(S(N)(=O)=O)cc2)cc1
1,0.99,1.09,1.16,1.02,0.99,1.01,1.02,,,,,,,,,,,CCOc1ccc(NC(=O)CSc2nc3c(I)cc(I)cc3c(=O)n2-c2ccc(S(N)(=O)=O)cc2)cc1
,,,,,,,,,,1.08,1.13,1.01,0.99,0.99,0.99,1,0.97,Cc1ccc(NC(=O)CSc2nc3c(I)cc(I)cc3c(=O)n2-c2ccc(S(N)(=O)=O)cc2)cc1
,,,,,,,,,,1.18,1.29,1.01,1.02,1,0.99,1.08,0.98,COc1ccc(NC(=O)CSc2nc3c(I)cc(I)cc3c(=O)n2-c2ccc(S(N)(=O)=O)cc2)cc1
,,,,,,,,,,1.27,1.48,1.05,1.01,1.04,1.06,1.14,1.05,Cc1cccc(NC(=O)CSc2nc3c(I)cc(I)cc3c(=O)n2-c2ccc(S(N)(=O)=O)cc2)c1
